Assay results: ChEMBL document CHEMBL3885861, “Open TG-GATES”

Organism: Rattus norvegicus
Experiment: Open TG-GATES - Regimen: Daily Repeat
Format: toxicity, organism-based, Sprague-Dawley
Design: regimen Daily Repeat, gender Male, age 6 weeks
Conditions: in vivo, po, route gavage; for Bas / Eos / Fbg / Hb / Ht / Lym / MCV / Mono / Neu / PT / Plat / RBC / Ret / WBC / APTT / MCH / MCHC: tissue Blood; for KIDNEY_L / KIDNEY_R / KIDNEY_TOTAL: tissue Kidney; for LIVER: tissue Liver; for ALP / ALT / AST / BUN / CRE / DBIL / GLC / IP / K / LDH / Na / PL / RALB / TBIL / TC / TG / TP / gamma-GTP / Ca: tissue Plasma
[1] = 300 mg/kg, 72 h, dose level Middle, time 3 day
[2] = 300 mg/kg, […], dose level Middle, time 7 day
[3] = 300 mg/kg, […], dose level Middle, time 14 day
[4] = 300 mg/kg, […], dose level Middle, time 28 day
[5] = 1000 mg/kg, 72 h, dose level High, time 3 day
[6] = 1000 mg/kg, […], dose level High, time 7 day
[7] = 1000 mg/kg, […], dose level High, time 14 day
[8] = 1000 mg/kg, […], dose level High, time 28 day

## O=C(O)c1cn(C2CC2)c2cc(N3CCNCC3)c(F)cc2c1=O [CIPROFLOXACIN]
[1]
  Bas: 0%
  Eos: 1%
  Fbg: 217 mg/dL
  Hb: 13 g/dL
  Ht: 38.7%
  Lym: 78.4%
  MCV: 63.5 fL
  Mono: 6%
  Neu: 14.4%
  PT: 12.4 s
  Plat: 103.1 x10_4/uL
  RBC: 609 x10_4/ul
  Ret: 6.9%
  WBC: 87 x10_2/uL
  KIDNEY_L: 0.9 g
  KIDNEY_R: 0.9 g
  KIDNEY_TOTAL: 1.8 g
  LIVER: 8.6 g
  ALP: 998 IU/L
  ALT: 37.8 IU/L
  AST: 68.4 IU/L
  BUN: 16.4 mg/dL
  CRE: 0.5 mg/dL
  DBIL: 0.014 mg/dL
  GLC: 182 mg/dL
  IP: 9.1 mg/dL
  K: 5 meq/L
  LDH: 81 IU/L
  Na: 140.4 meq/L
  PL: 148.8 mg/dL
  RALB: 3.8 g/dL
  TBIL: 0.3 mg/dL
  TC: 91 mg/dL
  TG: 49.4 mg/dL
  TP: 5.8 g/dL
  gamma-GTP: 2.2 IU/L
[2]
  TERMINAL_BW: 237.8 g
  APTT: 16 s
  Bas: 0%
  Eos: 0.6%
  Fbg: 218.5 mg/dL
  Hb: 13.2 g/dL
  Ht: 39.7%
  Lym: 80.4%
  MCH: 21.4 pg
  MCHC: 33.4%
  MCV: 64 fL
  Mono: 4.8%
  Neu: 14%
  PT: 12.4 s
  Plat: 98.1 x10_4/uL
  RBC: 620.2 x10_4/ul
  Ret: 6.7%
  WBC: 128.7 x10_2/uL
  KIDNEY_L: 1 g
  KIDNEY_R: 1 g
  KIDNEY_TOTAL: 2.1 g
  LIVER: 10.8 g
  ALP: 917.6 IU/L
  AST: 66.4 IU/L
  BUN: 20 mg/dL
  CRE: 0.5 mg/dL
  Ca: 11.4 mg/dL
  DBIL: 0.004 mg/dL
  GLC: 173.8 mg/dL
  IP: 9 mg/dL
  K: 4.9 meq/L
  LDH: 65.2 IU/L
  Na: 141.6 meq/L
  PL: 160.8 mg/dL
  RALB: 4 g/dL
  TBIL: 0.3 mg/dL
  TC: 90 mg/dL
  TG: 86.6 mg/dL
  TP: 5.8 g/dL
  gamma-GTP: 1.2 IU/L
[3]
  TERMINAL_BW: 282.8 g
  APTT: 16.4 s
  Bas: 0%
  Eos: 1%
  Fbg: 251 mg/dL
  Hb: 13.9 g/dL
  Ht: 41.6%
  Lym: 83.4%
  MCH: 20.4 pg
  MCHC: 33.4%
  MCV: 61.2 fL
  Mono: 5%
  Neu: 10.6%
  PT: 10 s
  Plat: 117.4 x10_4/uL
  RBC: 680.8 x10_4/ul
  Ret: 6.4%
  WBC: 162 x10_2/uL
  KIDNEY_L: 1.1 g
  KIDNEY_R: 1.1 g
  KIDNEY_TOTAL: 2.3 g
  LIVER: 12.3 g
  ALP: 973.2 IU/L
  ALT: 31.6 IU/L
  AST: 59.2 IU/L
  BUN: 20.4 mg/dL
  CRE: 0.6 mg/dL
  Ca: 11 mg/dL
  DBIL: 0.008 mg/dL
  GLC: 184.8 mg/dL
  IP: 7.8 mg/dL
  K: 4.8 meq/L
  LDH: 83.4 IU/L
  Na: 139 meq/L
  PL: 160 mg/dL
  RALB: 4 g/dL
  TBIL: 0.3 mg/dL
  TG: 105.8 mg/dL
  TP: 6 g/dL
  gamma-GTP: 2.8 IU/L
[4]
  TERMINAL_BW: 378.4 g
  APTT: 16.7 s
  Bas: 0%
  Eos: 0.8%
  Fbg: 245.2 mg/dL
  Ht: 44%
  Lym: 83.2%
  MCH: 19.3 pg
  MCHC: 33.2%
  MCV: 58.1 fL
  Mono: 5%
  Neu: 10.8%
  Plat: 100 x10_4/uL
  RBC: 756.8 x10_4/ul
  Ret: 3.2%
  WBC: 123.6 x10_2/uL
  KIDNEY_L: 1.3 g
  KIDNEY_R: 1.3 g
  KIDNEY_TOTAL: 2.6 g
  LIVER: 16 g
  ALP: 655 IU/L
  ALT: 33.8 IU/L
  AST: 59.4 IU/L
  BUN: 19.8 mg/dL
  CRE: 0.4 mg/dL
  DBIL: 0.004 mg/dL
  GLC: 180.8 mg/dL
  IP: 7.7 mg/dL
  K: 4.4 meq/L
  LDH: 102.2 IU/L
  Na: 140.6 meq/L
  PL: 172 mg/dL
  RALB: 4.1 g/dL
  TBIL: 0.3 mg/dL
  TC: 82.6 mg/dL
  TG: 184.6 mg/dL
  TP: 6.6 g/dL
  gamma-GTP: 1 IU/L
[5]
  TERMINAL_BW: 203.7 g
  APTT: 18.7 s
  Bas: 0%
  Eos: 1%
  Fbg: 222 mg/dL
  Hb: 12.8 g/dL
  Ht: 38.4%
  Lym: 83.2%
  MCH: 21.2 pg
  MCHC: 33.4%
  Mono: 6%
  Neu: 10%
  PT: 12.3 s
  Plat: 101.1 x10_4/uL
  RBC: 603.4 x10_4/ul
  Ret: 6%
  WBC: 121.3 x10_2/uL
  KIDNEY_L: 0.9 g
  KIDNEY_R: 1 g
  KIDNEY_TOTAL: 1.9 g
  LIVER: 9.6 g
  ALP: 962.6 IU/L
  ALT: 39 IU/L
  AST: 65.2 IU/L
  BUN: 16.8 mg/dL
  CRE: 0.5 mg/dL
  Ca: 11.2 mg/dL
  DBIL: 0.004 mg/dL
  GLC: 183.2 mg/dL
  IP: 9.4 mg/dL
  K: 4.9 meq/L
  LDH: 143.2 IU/L
  Na: 140.6 meq/L
  PL: 139.2 mg/dL
  RALB: 3.8 g/dL
  TBIL: 0.2 mg/dL
  TC: 86 mg/dL
  TP: 5.7 g/dL
  gamma-GTP: 1.4 IU/L
[6]
  TERMINAL_BW: 228.1 g
  APTT: 16 s
  Bas: 0%
  Eos: 0.8%
  Fbg: 231.8 mg/dL
  Hb: 13.5 g/dL
  Ht: 40.4%
  Lym: 81.2%
  MCH: 21.1 pg
  MCHC: 33.5%
  MCV: 63 fL
  Mono: 5.4%
  Neu: 12.8%
  Plat: 106.3 x10_4/uL
  RBC: 640.8 x10_4/ul
  Ret: 6.4%
  WBC: 154.8 x10_2/uL
  KIDNEY_L: 1 g
  KIDNEY_R: 1 g
  KIDNEY_TOTAL: 2 g
  LIVER: 10.5 g
  ALP: 850.4 IU/L
  AST: 64 IU/L
  BUN: 21.2 mg/dL
  CRE: 0.5 mg/dL
  Ca: 11.5 mg/dL
  DBIL: 0 mg/dL
  GLC: 182.4 mg/dL
  IP: 9.6 mg/dL
  K: 5.1 meq/L
  LDH: 96.8 IU/L
  Na: 141 meq/L
  PL: 158.8 mg/dL
  RALB: 3.8 g/dL
  TBIL: 0.2 mg/dL
  TC: 86 mg/dL
  TG: 90.2 mg/dL
  TP: 5.8 g/dL
  gamma-GTP: 1.6 IU/L
[7]
  TERMINAL_BW: 267.6 g
  APTT: 16.2 s
  Bas: 0%
  Eos: 0.8%
  Fbg: 255.2 mg/dL
  Hb: 14.3 g/dL
  Ht: 43%
  Lym: 82.8%
  MCH: 20.4 pg
  MCHC: 33.2%
  MCV: 61.6 fL
  Mono: 4.4%
  Neu: 12.4%
  PT: 10.2 s
  Plat: 97.3 x10_4/uL
  RBC: 699.2 x10_4/ul
  Ret: 5.7%
  WBC: 139.4 x10_2/uL
  KIDNEY_L: 1.1 g
  KIDNEY_R: 1.1 g
  KIDNEY_TOTAL: 2.2 g
  LIVER: 11 g
  ALP: 871.8 IU/L
  AST: 61.4 IU/L
  BUN: 22.8 mg/dL
  CRE: 0.6 mg/dL
  DBIL: 0.03 mg/dL
  GLC: 182.6 mg/dL
  IP: 7.8 mg/dL
  K: 4.8 meq/L
  LDH: 171.8 IU/L
  Na: 139.2 meq/L
  PL: 169 mg/dL
  RALB: 4 g/dL
  TBIL: 0.2 mg/dL
  TC: 92 mg/dL
  TP: 6.1 g/dL
  gamma-GTP: 1.8 IU/L
[8]
  TERMINAL_BW: 381.8 g
  Bas: 0%
  Eos: 1%
  Fbg: 248 mg/dL
  Hb: 14.7 g/dL
  Lym: 85%
  MCH: 19.5 pg
  MCHC: 33.5%
  MCV: 58.2 fL
  Mono: 3.4%
  Neu: 10.8%
  Plat: 110.7 x10_4/uL
  RBC: 757.8 x10_4/ul
  Ret: 3.5%
  WBC: 156.8 x10_2/uL
  KIDNEY_L: 1.4 g
  KIDNEY_R: 1.4 g
  KIDNEY_TOTAL: 2.8 g
  LIVER: 15 g
  ALP: 690 IU/L
  ALT: 32.4 IU/L
  AST: 51.8 IU/L
  BUN: 19.4 mg/dL
  CRE: 0.4 mg/dL
  Ca: 11.2 mg/dL
  DBIL: 0.022 mg/dL
  GLC: 180.6 mg/dL
  IP: 7.5 mg/dL
  K: 4.4 meq/L
  LDH: 160.6 IU/L
  Na: 140.2 meq/L
  PL: 173 mg/dL
  RALB: 4.1 g/dL
  TBIL: 0.2 mg/dL
  TC: 96 mg/dL
  TG: 102 mg/dL
  TP: 6.6 g/dL
  gamma-GTP: 2.4 IU/L
